Experimental data reported in PubChem BioAssay AID330 (DTP/NCI, 2004).
Values joined by “and” are separate entries in the source; they are usually repeats but may differ in a detail not shown here. Equal entries are not always repeated. Inconclusive results and toxic doses are left out. The calls were made as follows: active = survival T/C of 150% or more; inactive = T/C below 125% in these data.

Tested on: P388 leukemia ip, CD2F1 mice, survival T/C
Test: NCI In Vivo Anticancer Drug Screen. Data for tumor model P388 Leukemia (intraperitoneal) in CD2F1 (CDF1) mice
Conditions: endpoint: median survival time, higher = longer survival
How it was run: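 Mice carrying the transplanted tumor received test compound or vehicle. Survival was recorded in each group, and the value is the treated-group measurement divided by that of the vehicle-treated control group.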

Measured: T/C

Cc1cc(NCc2ccccc2)cc(=O)[nH]1
inactive: dose: 100.0 mg/kg/injection, schedule: Q01DX001 (ip), vehicle: saline with Tween-80 95 % of control | dose: 200.0 mg/kg/injection, schedule: Q01DX001 (ip), vehicle: saline with Tween-80 89 % of control | dose: 400.0 mg/kg/injection, schedule: Q01DX001 (ip), vehicle: saline with Tween-80 87 % of control

NC(=O)C(=O)NNc1cccc(Cl)n1
inactive: dose: 50.0 mg/kg/injection, schedule: Q01DX001 (ip), vehicle: Klucel (hydroxypropylcellulose) (HPC) 96 % of control | dose: 100.0 mg/kg/injection, schedule: Q01DX001 (ip), vehicle: Klucel (hydroxypropylcellulose) (HPC) 98 % of control | dose: 200.0 mg/kg/injection, schedule: Q01DX001 (ip), vehicle: Klucel (hydroxypropylcellulose) (HPC) 103 % of control

NNC(=O)c1cccc(C(=O)NN)c1
inactive: dose: 50.0 mg/kg/injection, schedule: Q01DX009 (ip), vehicle: saline with Tween-80 94 % of control | dose: 100.0 mg/kg/injection, schedule: Q01DX009 (ip), vehicle: saline with Tween-80 97 % of control | dose: 200.0 mg/kg/injection, schedule: Q01DX009 (ip), vehicle: saline with Tween-80 92 % of control

NSC(=S)NCc1ccco1
inactive: dose: 50.0 mg/kg/injection, schedule: Q01DX005 (ip), vehicle: Klucel (hydroxypropylcellulose) (HPC) 106 % of control and 107 % of control | dose: 100.0 mg/kg/injection, schedule: Q01DX005 (ip), vehicle: Klucel (hydroxypropylcellulose) (HPC) 101 % of control and 115 % of control | dose: 200.0 mg/kg/injection, schedule: Q01DX005 (ip), vehicle: Klucel (hydroxypropylcellulose) (HPC) 115 % of control and 119 % of control

O=C1C2C3C=CC(C3)C2C(=O)N1O (stereo not given)
inactive: dose: 50.0 mg/kg/injection, schedule: Q01DX005 (ip), vehicle: saline with Tween-80 101 % of control | dose: 100.0 mg/kg/injection, schedule: Q01DX005 (ip), vehicle: saline with Tween-80 100 % of control | dose: 200.0 mg/kg/injection, schedule: Q01DX005 (ip), vehicle: saline with Tween-80 100 % of control
